ChEMBL document CHEMBL1201862, “PubChem BioAssay data set” (2004)
Activity calls are given as the source filed them.

Tests used:
Bcl-2-related protein A1 [1] = target: T1, Bcl-2-related protein A1 (Mus musculus, UniProt Q07440); assay: Bfl-1 inhibitors blocking BH3 peptide binding, confirmation, biochemical, TR-FRET, mouse Bfl-1 (AID 621);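 further: TR-FRET binding of GST-Bfl-1 to FITC-labelled Bid peptide via terbium antibody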
T1 sequence (Q07440 whole entry): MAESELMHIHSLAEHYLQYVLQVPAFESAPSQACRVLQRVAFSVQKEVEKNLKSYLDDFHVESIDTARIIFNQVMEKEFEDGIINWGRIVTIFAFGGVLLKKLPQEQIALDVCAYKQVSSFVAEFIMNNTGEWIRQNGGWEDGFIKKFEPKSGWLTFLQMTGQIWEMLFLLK

Bcl-2-related protein A1 [2] = target: T1, Bcl-2-related protein A1; assay: Bfl-1 binding inhibitors, SAR follow-up, biochemical, fluorescence polarization (AID 1070)
[3] = M. tuberculosis growth inhibition, HTS (AID 449762); assay type: functional
cells = settings: HEK293
[4] = Late stage counterscreen results from the probe development effort to identify activators of signal transducer and activator of transcription 1 (STAT1): luminescence-based cell-based dose response assay to identify cytotoxic compounds.; assay type: functional
Fibrinogen beta chain [5] = target: T2, Fibrinogen beta chain (Homo sapiens, UniProt P02675); assay: Fluorescence polarization-based biochemical high throughput dose response assay to identify inhibitors that disrupt the binding of a cyclic peptide (Tn6) to the fibrin proteolytic product D-Dimer and fragment E complex [DD(E )].
T2 sequence (P02675 whole entry, the tested form may be a part): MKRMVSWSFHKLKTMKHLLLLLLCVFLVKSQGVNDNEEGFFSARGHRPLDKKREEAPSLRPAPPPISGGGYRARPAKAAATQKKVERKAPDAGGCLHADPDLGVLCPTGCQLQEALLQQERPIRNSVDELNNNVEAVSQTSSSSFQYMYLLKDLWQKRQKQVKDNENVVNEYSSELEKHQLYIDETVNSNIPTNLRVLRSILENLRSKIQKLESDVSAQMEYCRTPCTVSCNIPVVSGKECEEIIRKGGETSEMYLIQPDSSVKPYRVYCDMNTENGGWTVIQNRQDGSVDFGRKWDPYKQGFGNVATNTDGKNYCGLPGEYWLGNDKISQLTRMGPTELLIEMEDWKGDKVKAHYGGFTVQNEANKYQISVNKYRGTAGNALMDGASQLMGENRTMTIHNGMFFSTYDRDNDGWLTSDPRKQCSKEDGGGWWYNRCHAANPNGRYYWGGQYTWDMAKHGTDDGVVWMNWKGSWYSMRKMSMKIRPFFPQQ

Fibrinogen beta chain [6] = target: T2, Fibrinogen beta chain; assay: Fluorescence polarization-based biochemical high throughput dose response assay to identify inhibitors that disrupt the binding of a cyclic peptide (Tn7) to the fibrin proteolytic product D-Dimer and fragment E complex [DD(E )].
[7] = target: Peroxisome proliferator-activated receptor gamma/Nuclear receptor corepressor 2 (Homo sapiens, UniProt P37231+Q9Y618); assay: Counterscreen for NR2E3 inverse agonists: TR-FRET-based biochemical high throughput dose response assay to identify inverse agonists of the interaction between peroxisome proliferator-activated receptor gamma (PPARg) and nuclear receptor co-repressor 2 (NCOR2).; assay type: functional
Sequence of Peroxisome proliferator-activated receptor gamma/Nuclear receptor corepressor 2 (P37231 whole entry): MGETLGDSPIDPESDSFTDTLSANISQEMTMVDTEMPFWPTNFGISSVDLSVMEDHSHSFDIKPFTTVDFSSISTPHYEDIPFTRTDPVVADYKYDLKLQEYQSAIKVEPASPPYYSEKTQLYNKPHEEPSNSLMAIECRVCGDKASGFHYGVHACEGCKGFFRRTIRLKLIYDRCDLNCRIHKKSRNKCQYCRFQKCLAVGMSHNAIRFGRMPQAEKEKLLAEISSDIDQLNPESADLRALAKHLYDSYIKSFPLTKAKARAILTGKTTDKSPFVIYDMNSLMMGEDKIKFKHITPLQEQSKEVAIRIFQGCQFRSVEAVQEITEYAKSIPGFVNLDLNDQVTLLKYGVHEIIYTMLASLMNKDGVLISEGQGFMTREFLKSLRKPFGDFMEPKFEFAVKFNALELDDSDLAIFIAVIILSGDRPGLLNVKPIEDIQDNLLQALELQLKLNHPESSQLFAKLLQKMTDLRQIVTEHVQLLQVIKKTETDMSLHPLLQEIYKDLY
Sequence of Peroxisome proliferator-activated receptor gamma/Nuclear receptor corepressor 2 (Q9Y618 whole entry): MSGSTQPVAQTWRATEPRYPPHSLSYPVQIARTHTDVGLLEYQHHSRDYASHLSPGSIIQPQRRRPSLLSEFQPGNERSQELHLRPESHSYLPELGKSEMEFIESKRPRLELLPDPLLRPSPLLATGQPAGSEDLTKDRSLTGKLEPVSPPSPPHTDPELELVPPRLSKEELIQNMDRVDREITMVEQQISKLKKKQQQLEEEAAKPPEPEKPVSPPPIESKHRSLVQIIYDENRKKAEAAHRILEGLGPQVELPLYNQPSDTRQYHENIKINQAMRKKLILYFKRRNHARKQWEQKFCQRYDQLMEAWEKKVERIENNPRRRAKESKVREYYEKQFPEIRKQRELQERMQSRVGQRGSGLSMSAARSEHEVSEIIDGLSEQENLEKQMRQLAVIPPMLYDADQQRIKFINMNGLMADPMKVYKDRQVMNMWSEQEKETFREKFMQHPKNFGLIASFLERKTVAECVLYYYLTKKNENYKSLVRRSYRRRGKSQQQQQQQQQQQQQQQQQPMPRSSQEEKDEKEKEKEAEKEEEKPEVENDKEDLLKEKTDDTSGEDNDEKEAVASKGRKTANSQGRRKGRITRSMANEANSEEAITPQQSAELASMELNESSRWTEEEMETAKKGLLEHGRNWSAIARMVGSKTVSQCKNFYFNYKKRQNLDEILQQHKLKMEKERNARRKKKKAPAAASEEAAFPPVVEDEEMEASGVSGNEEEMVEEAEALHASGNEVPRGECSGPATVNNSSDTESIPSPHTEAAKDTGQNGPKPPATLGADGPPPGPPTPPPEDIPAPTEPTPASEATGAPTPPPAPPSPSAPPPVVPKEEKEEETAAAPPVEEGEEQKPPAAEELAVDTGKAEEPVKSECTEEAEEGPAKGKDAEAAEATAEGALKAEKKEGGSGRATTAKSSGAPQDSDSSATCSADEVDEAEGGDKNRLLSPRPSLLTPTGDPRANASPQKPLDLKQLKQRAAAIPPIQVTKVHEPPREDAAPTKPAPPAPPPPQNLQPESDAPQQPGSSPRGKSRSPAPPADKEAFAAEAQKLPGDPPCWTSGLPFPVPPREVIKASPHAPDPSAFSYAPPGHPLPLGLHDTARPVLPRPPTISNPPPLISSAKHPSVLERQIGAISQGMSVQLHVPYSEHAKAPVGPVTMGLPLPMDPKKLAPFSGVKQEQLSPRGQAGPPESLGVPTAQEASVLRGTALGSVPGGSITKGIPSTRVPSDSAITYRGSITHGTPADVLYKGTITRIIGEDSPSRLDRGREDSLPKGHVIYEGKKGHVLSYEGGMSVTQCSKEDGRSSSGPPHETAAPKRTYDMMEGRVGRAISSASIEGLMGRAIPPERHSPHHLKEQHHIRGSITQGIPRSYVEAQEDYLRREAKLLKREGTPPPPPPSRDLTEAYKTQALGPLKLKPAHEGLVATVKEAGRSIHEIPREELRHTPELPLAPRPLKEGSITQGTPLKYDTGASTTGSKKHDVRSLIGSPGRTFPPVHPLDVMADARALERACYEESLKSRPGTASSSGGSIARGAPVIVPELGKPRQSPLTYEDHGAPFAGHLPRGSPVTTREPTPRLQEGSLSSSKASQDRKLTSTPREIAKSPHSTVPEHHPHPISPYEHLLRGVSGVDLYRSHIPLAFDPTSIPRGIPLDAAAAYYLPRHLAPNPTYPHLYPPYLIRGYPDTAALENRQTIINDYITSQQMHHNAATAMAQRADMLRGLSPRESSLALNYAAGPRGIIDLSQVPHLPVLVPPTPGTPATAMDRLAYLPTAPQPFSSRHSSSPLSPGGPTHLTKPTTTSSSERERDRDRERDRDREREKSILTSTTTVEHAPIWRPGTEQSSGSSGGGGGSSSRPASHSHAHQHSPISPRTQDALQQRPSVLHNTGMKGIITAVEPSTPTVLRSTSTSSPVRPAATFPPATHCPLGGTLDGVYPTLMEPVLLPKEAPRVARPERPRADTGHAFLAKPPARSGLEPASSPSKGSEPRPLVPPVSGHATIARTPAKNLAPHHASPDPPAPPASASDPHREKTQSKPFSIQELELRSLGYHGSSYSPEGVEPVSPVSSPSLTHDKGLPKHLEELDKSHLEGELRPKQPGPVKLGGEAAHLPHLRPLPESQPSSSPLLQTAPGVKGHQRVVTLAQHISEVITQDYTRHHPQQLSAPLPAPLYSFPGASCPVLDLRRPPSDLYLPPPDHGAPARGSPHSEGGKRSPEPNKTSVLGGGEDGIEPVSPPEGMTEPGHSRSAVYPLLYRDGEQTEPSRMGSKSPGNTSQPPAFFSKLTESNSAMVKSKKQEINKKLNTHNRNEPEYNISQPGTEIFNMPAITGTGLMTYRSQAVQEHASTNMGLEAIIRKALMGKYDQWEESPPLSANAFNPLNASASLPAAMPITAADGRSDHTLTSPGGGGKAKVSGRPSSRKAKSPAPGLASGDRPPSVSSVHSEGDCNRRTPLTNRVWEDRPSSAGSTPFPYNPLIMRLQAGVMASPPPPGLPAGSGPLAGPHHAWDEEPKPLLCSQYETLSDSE

[8] = target: Photoreceptor-specific nuclear receptor (Homo sapiens, UniProt Q9Y5X4); assay: NR2E3 inverse agonists, dose response, biochemical, TR-FRET (AID 463256); assay type: functional
Sequence of Photoreceptor-specific nuclear receptor (Q9Y5X4 whole entry): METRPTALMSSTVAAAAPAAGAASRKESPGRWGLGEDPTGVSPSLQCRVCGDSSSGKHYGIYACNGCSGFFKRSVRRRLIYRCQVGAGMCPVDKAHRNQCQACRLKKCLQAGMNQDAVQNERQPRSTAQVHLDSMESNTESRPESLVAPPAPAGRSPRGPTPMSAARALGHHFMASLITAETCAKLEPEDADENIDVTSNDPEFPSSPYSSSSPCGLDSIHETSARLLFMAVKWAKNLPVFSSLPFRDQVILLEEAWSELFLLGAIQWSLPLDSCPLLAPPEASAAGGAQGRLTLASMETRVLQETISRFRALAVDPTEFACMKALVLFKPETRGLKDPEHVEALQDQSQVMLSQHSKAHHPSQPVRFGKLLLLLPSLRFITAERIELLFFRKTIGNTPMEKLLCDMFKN

[9] = P. falciparum Dd2 growth inhibitors, dose response, SYBR Green, dry powder samples, set 4 (AID 1159572); assay type: functional, cell-based
14-3-3 protein gamma = 14-3-3 protein gamma (Homo sapiens, UniProt P61981); assay: modulators of 14-3-3 gamma client binding – dose response (AID 711); assay type: functional
Sequence of 14-3-3 protein gamma (P61981 whole entry): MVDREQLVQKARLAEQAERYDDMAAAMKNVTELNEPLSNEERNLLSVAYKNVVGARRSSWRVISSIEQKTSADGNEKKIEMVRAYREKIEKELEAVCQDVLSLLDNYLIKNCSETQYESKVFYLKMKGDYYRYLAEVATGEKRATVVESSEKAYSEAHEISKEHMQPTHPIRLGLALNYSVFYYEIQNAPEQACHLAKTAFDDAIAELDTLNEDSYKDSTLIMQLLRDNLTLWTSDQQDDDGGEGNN

Troponin, cardiac muscle = Troponin, cardiac muscle (Homo sapiens, UniProt P19429+P45379+P63316); assay: Fluorescence-based biochemical high throughput dose response assay for activators of the calcium sensitivity of cardiac Regulated Thin Filaments (RTF). [Related pubchem assays (depositor defined):AID493008, AID493018, AID504382, AID504383]; assay type: protein-complex assay
[10] = target: T3, Low molecular weight phosphotyrosine protein phosphatase (Homo sapiens, UniProt P24666); assay: LMPTP phosphatase inhibitors, dose response, biochemical, OMFP substrate, fluorescence intensity, set 2 (AID 743307); assay type: functional
T3 sequence (P24666 whole entry): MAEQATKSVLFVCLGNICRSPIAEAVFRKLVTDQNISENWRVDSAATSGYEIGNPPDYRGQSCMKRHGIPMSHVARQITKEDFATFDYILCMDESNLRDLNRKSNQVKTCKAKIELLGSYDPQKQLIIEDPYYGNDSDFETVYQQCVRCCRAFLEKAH

[11] = target: T3, Low molecular weight phosphotyrosine protein phosphatase; assay: LMPTP phosphatase inhibitors, colorimetric pNPP readout, dose response, orthogonal assay, biochemical, absorbance, pNPP substrate, LMPTP-A isoform, set 2 (AID 743308); assay type: functional

Compound: Clc1ccc(-n2nnc(-c3cccnc3Cl)n2)cn1
- IC50 (Bcl-2-related protein A1 [1]): > 100 µM (not active)
- IC50 (Bcl-2-related protein A1 [2]): > 100 µM (not active)

Compound: Cn1nnc(NC(=S)NC(=O)c2ccc(-c3ccc(Br)cc3)o2)n1
- IC50 [3]: > 100 µM (active)

Compound: COc1cc(C)ccc1OCCn1cnc2ccccc21
- AC50 (cells): > 52 µM (inactive)

Compound: Cc1nnc(SCC(=O)Nc2ccc(-c3nc4ccccc4s3)cc2)s1
- IC50 [4]: > 55.7 µM (not active)

Compound: O=C(COC(=O)c1cc(-c2cccc3ccccc23)nc2ccccc12)NC1CCS(=O)(=O)C1 (centres undefined)
- IC50 (Fibrinogen beta chain [5]): > 83.3 µM (inactive)
- IC50 (Fibrinogen beta chain [6]): > 83.3 µM (inactive)

Compound: COc1ccc(NC(=O)CSc2nnc(-c3cccs3)n2-c2ccccc2)cc1
- IC50 [7]: 2.16 µM (active)
- IC50 [8]: 2.09 µM (active)

Compound: COc1ccc2c3c([nH]c2c1)[C@H](CO)N(C(C)=O)CC31CCN(C(C)=O)CC1
- AC50 [9]: 16.5 µM (active)

Compound: COc1ncnc2c1N=C1CC(C)(C)CC(N)=C1S2
- IC50 (14-3-3 protein gamma): 30 µM (active)
- EC50 (Troponin, cardiac muscle): > 7.94 µM (active)

Compound: c1ccc(-c2cc(SCCCN3CCCCC3)c3ccccc3n2)cc1
- IC50 [10]: 66.9 µM (inactive)
- IC50 [11]: > 80 µM (inactive)
